Reference: patent publication US20060009425A1, “Oral formulations of paricalcitol” (priority 2004, published 2006)
Where two headings read alike, the source gives them in different places.

Assay: Single and multiple dose pharmacokinetics, moderate to severe chronic renal impairment (Example 4, Table 23)
Type: in vivo, human
Set-up: AUC0-24 on Study Day 8 vs. AUC0-∞ on Study Day 1, Point Estimate / AUC0-24 on Study Day 8 vs. AUC0-∞ on Study Day 1, 95% Confidence Interval: unit not given beside the values
Conditions: for Cmax / Tmax / half-life / AUC(0-t) / AUC(0-inf) / fraction unbound / concentration at 24 h: human, plasma, oral; for AUC(0-t): read-out: AUC0-24; for concentration at 24 h: Study Day 9, read-out: trough concentration 24 h post dose on Study Day 8
Method: Methodology: This was a Phase 1, open-label, single and multiple-dose, multi-center study. A sufficient number of subjects were screened to have approximately 15 subjects with moderate renal impairment (CKD Stage 3) (Group 1, Glomerular Filtration Rate (GFR) of 30-60 mL/min) and approximately 15 subjects with severe renal impairment (CKD Stage 4) (Group 2, GFR <30 mL/min, not requiring dialysis) enrolled in the study. The subjects in moderate renal impairment group received 4 μg paricalcitol capsule on Study Day 1, and 4 μg QD for 6 doses over Study Days 3-8. The subjects in severe renal impairment group received 3 μg paricalcitol capsule on Study Day 1 and 3 μg QD for 6 doses over Study Days 3-8. Each dose of study was taken orally with approximately 180 mL of water at 0800, 30 minutes after breakfast was served.
Plasma concentrations of paricalcitol were determined using a validated liquid chromatography method with tandem mass spectrometric assay method at Abbott Laboratories, Ill.
Pharmacokinetic: Values for the pharmacokinetic parameters of paricalcitol, including the maximum observed plasma concentration (Cmax), the time to Cmax(Tmax), the terminal phase elimination rate constant (β), half life (t1/2), area under the plasma concentration-time curve (AUC), apparent total clearance (CL/F), and apparent volume of distribution (Vdβ/F) were determined using noncompartmental methods. Values of these parameters were determined after both single (first) dose (Study Day 1) and multiple doses (Study Day 8). In addition, minimum observed plasma concentration (Cmin), accumulation index (AI), and degree of fluctuation (DFL) after multiple doses were determined for the dose on Study Day 8 (steady state).
Pharmacokinetic: Point estimates and the corresponding 95% confidence intervals were obtained for central values of the pharmacokinetic parameters for each of the renal impairment groups. Two-sample t-test was performed to compare the pharmacokinetic parameters across the two renal impairment groups on each of Study Days 1 and 8. […] Within the framework of the analysis, the mean trough concentration values on Study Days 6, 7 and 8 were each compared to that at 24 h post Study Day 8 dose.
An analysis of variance (ANOVA) was performed on Tmax, β, and the logarithms of AUC and Cmax to compare the single-dose and steady-state data for each of the renal impairment groups. The same test was also performed for each group for the difference between the natural logarithm of the AUC0-24 on Day 8 and the natural logarithm of the AUC0-∞ on Study Day 1. Then the point estimate and 95% confidence interval for the ratio of the central values (the central value of the AUC0-24 on Study Day 8 to that of the AUC0-∞ on Study Day 1) were obtained by exponentiating the corresponding point estimate for the difference.
Paricalcitol capsules are under development for the prevention and treatment of secondary hyperparathyroidism in chronic kidney disease (CKD). The aim of this open-label, single and multiple dose, multi-center study was to evaluate the safety, and pharmacokinetics (PK) of paricalcitol in CKD Stage 3 (single 4 μg dose on Day 1 and 4 μg QD from Days 3-8) and CKD Stage 4 (single 3 μg dose on Day 1 and 3 μg QD from Days 3-8) subjects.

[1] = 3 ug, severe renal impairment, 3 μg QD, Study Day 8
[2] = 3 ug, severe renal impairment, 3 μg, Study Day 1
[3] = 4 ug, moderate renal impairment, 4 μg QD, Study Day 8
[4] = 4 ug, moderate renal impairment, 4 μg, Study Day 1
[5] = 4 μg, moderate renal impairment
[6] = moderate renal impairment, 4 μg QD, Study Day 8
[7] = moderate renal impairment, 4 μg, Study Day 1
[8] = severe renal impairment, 3 μg QD, Study Day 8
[9] = severe renal impairment, 3 μg, Study Day 1

In the case of `C[C@H](/C=C/[C@H](C)C(C)(C)O)[C@H]1CC[C@H]2/C(=C/C=C3C[C@@H](O)C[C@H](O)C3)CCC[C@]12C` [Paricalcitol, 19-nor-1α,3β,25-trihydroxy-9,10-secoergosta-5(Z); 7(E),22(E)-triene], the Cmax [1] is reported as 0.097 ± 0.023 ng/mL, the Tmax [1] is reported as 9.1 ± 5.5 h and the half-life (3 ug, severe renal impairment, 3 μg QD, Study Day 8, harmonic mean ± pseudo-standard deviation, read-out: t1/2 (converted)) is reported as 1380 ± 338 min. For the same molecule, the AUC(0-t) [1] was 1.75 ± 0.421 ng·h/mL, the AUC(0-inf) [2] was 2.13 ± 0.733 ng·h/mL and the Cmax [2] was 0.065 ± 0.012 ng/mL. It also gave a Tmax [2] of 5.9 ± 3.6 h, a half-life (3 ug, severe renal impairment, 3 μg, Study Day 1, harmonic mean ± pseudo-standard deviation, read-out: t1/2 (converted)) of 1180 ± 431 min and an AUC(0-t) [2] of 1.02 ± 0.23 ng·h/mL. The fraction unbound (3 μg, severe renal impairment) was 0.0008 ± 0.0002, the concentration at 24 h (3 μg, severe renal impairment) was 0.057 ± 0.014 ng/mL and the Cmax [3] was 0.155 ± 0.057 ng/mL. It also gave a Tmax [3] of 4.2 ± 1.9 h, a half-life (4 ug, moderate renal impairment, 4 μg QD, Study Day 8, harmonic mean ± pseudo-standard deviation, read-out: t1/2 (converted)) of 932 ± 193 min and an AUC(0-t) [3] of 2.22 ± 0.701 ng·h/mL. It also gave an AUC(0-inf) [4] of 2.42 ± 0.614 ng·h/mL, a Cmax [4] of 0.113 ± 0.036 ng/mL and a Tmax [4] of 4.7 ± 2.5 h. For the same molecule, the half-life (4 ug, moderate renal impairment, 4 μg, Study Day 1, harmonic mean ± pseudo-standard deviation, read-out: t1/2 (converted)) was 1010 ± 159 min, the AUC(0-t) [4] was 1.45 ± 0.407 ng·h/mL and the fraction unbound [5] was 0.0008 ± 0.0005. For the same molecule, the concentration at 24 h [5] was 0.057 ± 0.019 ng/mL, the half-life (moderate and severe renal impairment (CKD Stage 3 and 4) subjects, read-out: mean half-life) was 960 to 1380 min and the “steady state essentially reached by” value (moderate and severe renal impairment subjects, QD dosing) was ≤ 6 Study Day. For the same molecule, the “AUC0-24 on Study Day 8 vs. AUC0-∞ on Study Day 1, 95% Confidence Interval” value (moderate renal impairment) was 0.8150-0.9896, the “AUC0-24 on Study Day 8 vs. AUC0-∞ on Study Day 1, Point Estimate” value (moderate renal impairment) was 0.8981 and the CL/F [6] was 2.014 ± 0.774 L/h. For the same molecule, the Cmax/Dose [6] was 0.039 ± 0.014 ng/mL/µg, the Cmin [6] was 0.047 ± 0.018 ng/mL and the “DFL (degree of fluctuation)” value [6] was 116.77 ± 35.24%. It also gave a Vdβ/F [6] of 46.76 ± 19.35 L, a β [6] of 0.045 ± 0.009 h−^1 and a CL/F [7] of 1.766 ± 0.505 L/h. It also gave a Cmax/Dose [7] of 0.028 ± 0.009 ng/mL/µg, a Vdβ/F [7] of 43.72 ± 14.45 L and a β [7] of 0.041 ± 0.007 h−^1. The pre-dose trough concentration (moderate renal impairment, Study Day 6) was 0.050 ± 0.016 ng/mL, the pre-dose trough concentration (moderate renal impairment, Study Day 7) was 0.053 ± 0.014 ng/mL and the pre-dose trough concentration (moderate renal impairment, Study Day 8) was 0.053 ± 0.019 ng/mL. For the same molecule, the “AUC0-24 on Study Day 8 vs. AUC0-∞ on Study Day 1, 95% Confidence Interval” value (severe renal impairment) was 0.7612-0.9227, the “AUC0-24 on Study Day 8 vs. AUC0-∞ on Study Day 1, Point Estimate” value (severe renal impairment) was 0.8380 and the CL/F [8] was 1.751 ± 0.388 L/h. For the same molecule, the Cmax/Dose [8] was 0.032 ± 0.008 ng/mL/µg, the Cmin [8] was 0.049 ± 0.010 ng/mL and the “DFL (degree of fluctuation)” value [8] was 64.86 ± 17.79%. The Vdβ/F [8] was 61.61 ± 20.34^¥ L, the β [8] was 0.030 ± 0.007 h−^1 and the CL/F [9] was 1.517 ± 0.359 L/h. For the same molecule, the Cmax/Dose [9] was 0.022 ± 0.004 ng/mL/µg, the Vdβ/F [9] was 46.40 ± 12.45 L and the β [9] was 0.035 ± 0.013 h−^1. It also gave a pre-dose trough concentration (severe renal impairment, Study Day 6) of 0.051 ± 0.011 ng/mL, a pre-dose trough concentration (severe renal impairment, Study Day 7) of 0.050 ± 0.015 ng/mL and a pre-dose trough concentration (severe renal impairment, Study Day 8) of 0.056 ± 0.012 ng/mL.
